Data on eleven molecules can be found in ChEMBL document CHEMBL1201862, “PubChem BioAssay data set” (2004).

SMILES strings stand for the structures.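 These data come from cells grown in 96-well plates and exposed to compound for 48 hours at five concentrations. GI50: concentration for 50% inhibition of growth.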 Active and inactive are the calls of the source. Cut-off read from the data, not from the text of the source: active = GI50 up to about 1.1 µM and inactive = higher.

Some test systems named below: CCRF-CEM; COLO 205; HCT-116; HCT-15; HOP-62; K562; MOLT-4; Malme-3M; NCI-H226; NCI-H23; NCI-H460; OVCAR-5; OVCAR-8; RPMI-8226; SF-268; SK-MEL-28; SNB-19; TK-10; UACC-257; CAKI-1.
Common to all, as to assay: inhibition of tumour cell growth, NCI panel, 48 h

For `O=C(O)c1cc(-c2ccc3cc4c(cc3c2)OCO4)nc2ccccc12`, the GI50 was 11.3 µM (inactive) in the experiment with CCRF-CEM; 42.4 µM (inactive) in the experiment on COLO 205; 19.5 µM (inactive) in the experiment on HCT-116; 12.3 µM in the experiment with HCT-15; 41.1 µM (inactive) in the experiment on HOP-62; 32.5 µM (inactive) in the experiment with K562. In addition, the GI50 in the experiment with MOLT-4 is 28.8 µM (inactive); in the experiment with Malme-3M, 65.2 µM (inactive); with NCI-H226 it was 42.4 µM (inactive); with NCI-H23 it was 43.8 µM (inactive); with NCI-H460, 12.9 µM (inactive); in the experiment on OVCAR-5 it was 28.5 µM (inactive). Moreover, the GI50 in the experiment on OVCAR-8 was 37.1 µM (inactive); in the experiment on RPMI-8226, 45.9 µM (inactive); in the experiment on SF-268, 28.6 µM (inactive); in the experiment with SK-MEL-28, 47.5 µM (inactive); with SNB-19, 25.7 µM (inactive); with TK-10 it was 18.2 µM (inactive). For the same molecule, the GI50 in the experiment with UACC-257 is 5.41 µM (inactive).

As for `CCC1(OC(=O)CN)C(=O)OCc2c1cc1n(c2=O)Cc2cc3ccccc3nc2-1` (stereo not drawn), the GI50 in the experiment with CAKI-1 was 0.01 µM (active); in the experiment on CCRF-CEM it was 0.01 µM (active); in the experiment with COLO 205, 0.0491 µM (active); in the experiment with HCT-15, 0.149 µM; in the experiment on HOP-62, 0.01 µM (active); in the experiment with K562, 0.0334 µM (active). The GI50 is 0.01 µM (active) with MOLT-4; 0.151 µM (active) with Malme-3M; 0.0134 µM (active) in the experiment with NCI-H226; 0.01 µM (active) with NCI-H23; 0.01 µM (active) in the experiment with NCI-H460; 0.0457 µM (active) in the experiment on OVCAR-5. In addition, the GI50 in the experiment on RPMI-8226 was < 0.0132 µM (active); in the experiment on SF-268, 0.01 µM (active); in the experiment on SK-MEL-28, 0.101 µM (active); with SNB-19 it was 0.01 µM (active); in the experiment with TK-10, 0.516 µM (active); with UACC-257 it was 0.0353 µM (active).

Turning to `COc1ccc(C2N(NC(=O)c3ccncc3)C(=O)CS2(=O)=O)cc1F` (stereo not drawn), the GI50 with CAKI-1 is > 100 µM (inactive); in the experiment on CCRF-CEM, > 100 µM (inactive); in the experiment with COLO 205, > 100 µM (inactive); in the experiment on HCT-116 it was > 100 µM (inactive); in the experiment with HCT-15 it was above 100 µM; with HOP-62, > 100 µM (inactive). Besides, the GI50 was 14 µM (inactive) in the experiment with MOLT-4; > 100 µM (inactive) in the experiment on Malme-3M; > 100 µM (inactive) in the experiment on NCI-H226; > 100 µM (inactive) with NCI-H23; > 100 µM (inactive) in the experiment with NCI-H460; > 100 µM (inactive) in the experiment with OVCAR-5. The GI50 in the experiment with RPMI-8226, in the experiment with SF-268, with SK-MEL-28, in the experiment with SNB-19, in the experiment with TK-10 and in the experiment with UACC-257 was > 100 µM (inactive) throughout.

Regarding `O=c1ccc2cc3ccc4cccc5ccc(c2o1)c3c45`, the GI50 in the experiment on CAKI-1 is > 100 µM (inactive); in the experiment with CCRF-CEM it was > 100 µM (inactive); in the experiment with COLO 205, > 100 µM (inactive); with HCT-15 it was above 100 µM; with K562 it was > 100 µM (inactive); in the experiment with MOLT-4, > 100 µM (inactive). Also, the GI50 in the experiment on Malme-3M was > 100 µM (inactive); in the experiment on NCI-H226, 19.7 µM (inactive); in the experiment on NCI-H23 it was 67.8 µM (inactive); in the experiment on NCI-H460, 13.1 µM (inactive); in the experiment on OVCAR-8, 23.2 µM (inactive); in the experiment on RPMI-8226, > 100 µM (inactive). The GI50 is 28.8 µM (inactive) with SF-268, > 100 µM (inactive) in the experiment on SK-MEL-28, 37.3 µM (inactive) with SNB-19 and > 100 µM (inactive) with TK-10.

For `O=C(NC1C/C(=N/O)c2c(Br)sc(Br)c21)C(F)(F)F` (stereo not drawn), the GI50 was 13.8 µM (inactive) with CAKI-1; 20.2 µM (inactive) in the experiment with CCRF-CEM; 51.8 µM (inactive) with COLO 205; 17.1 µM (inactive) with HCT-116; 24.8 µM with HCT-15; 20 µM (inactive) in the experiment on K562. Moreover, the GI50 in the experiment on MOLT-4 is 26.3 µM (inactive); in the experiment with Malme-3M, 45.9 µM (inactive); with NCI-H226, 18.4 µM (inactive); in the experiment with NCI-H23 it was 16 µM (inactive); with NCI-H460, 25.4 µM (inactive); in the experiment with OVCAR-5, > 100 µM (inactive). For the same molecule, the GI50 was 20.7 µM (inactive) with OVCAR-8; 23.6 µM (inactive) with SF-268; 41.7 µM (inactive) in the experiment on SNB-19; 36.3 µM (inactive) with TK-10; 22.9 µM (inactive) in the experiment on UACC-257.

For the molecule `C=CCNC(=O)N(CCC)CCCCC(NC(C)=O)C(=O)NCc1ccccc1` (stereo not drawn), the GI50 in the experiment on CAKI-1 was > 100 µM (inactive); with CCRF-CEM it was > 100 µM (inactive); with COLO 205 it was > 100 µM (inactive); in the experiment with HCT-15, above 100 µM; in the experiment with HOP-62, > 100 µM (inactive); in the experiment with K562, > 100 µM (inactive). For the same molecule, the GI50 with MOLT-4, in the experiment on Malme-3M, with NCI-H226, in the experiment on NCI-H23, in the experiment with NCI-H460 and with OVCAR-5 was > 100 µM (inactive) in each case. The GI50 in the experiment on OVCAR-8, in the experiment on RPMI-8226, in the experiment with SF-268, with SK-MEL-28, in the experiment with SNB-19 and in the experiment on TK-10 was > 100 µM (inactive) each time. Besides, in the experiment with UACC-257, the GI50 is > 100 µM (inactive).

`Cc1nnc(Nc2ccc(Cl)cc2)o1`: the GI50 with CAKI-1 is > 10 µM (inactive); with CCRF-CEM it was > 10 µM (inactive); with COLO 205, > 10 µM (inactive); with HCT-116, > 10 µM (inactive); with HCT-15, above 10 µM; in the experiment with HOP-62, > 10 µM (inactive). The GI50 with K562, in the experiment with Malme-3M, with NCI-H226, in the experiment on NCI-H23, with NCI-H460 and in the experiment on OVCAR-8 was > 10 µM (inactive) in each case. For the same molecule, the GI50 in the experiment with SF-268, in the experiment with SK-MEL-28, in the experiment with SNB-19, in the experiment with TK-10 and in the experiment on UACC-257 was > 10 µM (inactive) in each case.

In the case of `C=CC(=O)NC(O)(C(=O)OCC)C(F)(F)F` (stereo not drawn), the GI50 was > 100 µM (inactive) in the experiment with CAKI-1; > 100 µM (inactive) in the experiment with CCRF-CEM; > 100 µM (inactive) in the experiment with COLO 205; > 100 µM (inactive) in the experiment on HCT-116; above 100 µM in the experiment with HCT-15; > 100 µM (inactive) with HOP-62. Further, the GI50 with K562, in the experiment with MOLT-4, in the experiment with Malme-3M, with NCI-H226, with NCI-H23 and in the experiment with OVCAR-5 was > 100 µM (inactive) throughout. Besides, the GI50 in the experiment with OVCAR-8, with RPMI-8226, in the experiment on SF-268, in the experiment with SK-MEL-28, in the experiment with SNB-19 and with TK-10 was > 100 µM (inactive) each time. Also, the GI50 in the experiment on UACC-257 is > 100 µM (inactive).

With `Cc1[nH]c2ncn(/N=C/c3ccccc3O)c(=N)c2c1Cc1ccccc1`, the GI50 in the experiment on CAKI-1 was 46.1 µM (inactive); in the experiment with CCRF-CEM it was 39.4 µM (inactive); with COLO 205, > 100 µM (inactive); in the experiment with HCT-116, 43.4 µM (inactive); in the experiment on HCT-15, 46.3 µM; in the experiment on HOP-62, > 100 µM (inactive). For the same molecule, the GI50 in the experiment with K562 was 11.3 µM (inactive); in the experiment on MOLT-4 it was 30.8 µM (inactive); with NCI-H226, 75.5 µM (inactive); with NCI-H23, 50.6 µM (inactive); with NCI-H460 it was 66.7 µM (inactive); with OVCAR-5, > 100 µM (inactive). Moreover, the GI50 with OVCAR-8 is > 100 µM (inactive); in the experiment on RPMI-8226, 37.8 µM (inactive); in the experiment on SF-268, 75.2 µM (inactive); with SK-MEL-28, 42.3 µM (inactive); in the experiment with SNB-19 it was > 100 µM (inactive); in the experiment with TK-10, 56.9 µM (inactive). Moreover, the GI50 in the experiment with UACC-257 is 34.4 µM (inactive).

Turning to `COc1cc2ccc(CC(N)=O)cc2cc1OC`, the GI50 is > 100 µM (inactive) in the experiment with CCRF-CEM; > 100 µM (inactive) in the experiment with COLO 205; > 100 µM (inactive) with HCT-116; above 100 µM in the experiment on HCT-15; > 100 µM (inactive) in the experiment on HOP-62; > 100 µM (inactive) in the experiment with K562. Further, the GI50 in the experiment with MOLT-4, in the experiment on Malme-3M, with NCI-H226, with NCI-H23, in the experiment with OVCAR-5 and in the experiment with OVCAR-8 was > 100 µM (inactive) throughout. For the same molecule, the GI50 in the experiment on RPMI-8226, with SF-268, in the experiment with SK-MEL-28, with SNB-19, in the experiment on TK-10 and in the experiment with UACC-257 was > 100 µM (inactive) in each case.

`COCCO` [2-METHOXYETHANOL]: the GI50 with CAKI-1 is > 100 µM (inactive); with COLO 205, > 100 µM (inactive); with HCT-116, > 100 µM (inactive); in the experiment with HCT-15, above 100 µM; in the experiment with HOP-62, > 78.2 µM (inactive); in the experiment with K562, > 100 µM (inactive). The GI50 with MOLT-4, in the experiment on Malme-3M, with NCI-H226, in the experiment on NCI-H23, with NCI-H460 and with OVCAR-5 was > 100 µM (inactive) each time. Moreover, the GI50 in the experiment with OVCAR-8, with RPMI-8226, in the experiment on SF-268, in the experiment with SK-MEL-28, in the experiment with SNB-19 and in the experiment on UACC-257 was > 100 µM (inactive) in each case.
